Assays:
Type in all cases: cell-based, human
SRSF2/SC-35 = assay: pSC-35 speckle immunofluorescence; conditions: 48 h
Experimental: For immunostaining, cells were seeded in differentiation medium, on 24-well microplates containing PLO/FN-coated 13 mm Ø coverslips, and treated for 48 h as previously described. On the readout day, the medium was removed and cells were fixed, permeabilized and blocked as before. Primary antibody dilutions were made in 1.5% NHS in PBS (Supplementary Table S1) and incubated overnight at 4 °C. On the following day, the coverslips were washed three times with PBS and incubated with host-specific fluorescence secondary antibodies (Supplementary Table S1), for 2 h at RT, protected from light. After another three washes with PBS, cell nuclei were stained with 1:5,000 DAPI (4’,6-diamidino-2-phenylindole, Thermo Fisher Scientific) in PBS, for 15 min at RT. The coverslips were mounted in mowiol and left to dry for 24 h before imaging. Image acquisition for FI quantification was done with a 200 × magnification (20 × objective, 10 × intermediate magnification), or 400x (40 × objective, 10 × intermediate magnification) in the case of pSC-35 and AT8 immunostaining, on a fluorescence microscope Leica-DFC9000GTC (Leica). In the case of phospho-tau AT8, Z-stacks consisting of 18 plane images with a step size of 1 μm were acquired. The image acquisition parameters were identical for all conditions. Quantification of 8-OHdG (8-hydroxyguanosine) FI and tau species was performed using the ImageJ software. Ten-to-fifteen images per condition across triplicates, from different view fields, were used for this purpose. Briefly, TIFF exported images were submitted to background subtraction using the rolling ball method with a radius of 50 pixels. For 8-OHdG analysis, a channel-specific threshold was applied to all images to define the ROI and FI was measured and normalized to the cell number, determined by the DAPI channel. The average value of the different view fields per experimental condition was taken and reported as fold change compared to the control (DMSO-treated) condition. For the analysis of phospho-tau AT270 and pan-tau reactivity, channel specific thresholds were applied to all images. The DAPI channel was used to define nuclei from viable cells, by selecting particles with a size above 15 µm^2 and a circularity of 0.3–1.0. […] These masks were used to quantify the number of somas expressing each of these tau species, as well as the respective FI. The number of AT270-positive somas was divided by the number of pan-tau-positive somas and expressed as a percentage. […] For quantification of pSC-35 and AT8 speckle number and FI, we used CellProfiler™ 4 (https://cellprofiler.org/, Broad Institute Inc., Cambridge, MA, USA) speckle counting pipeline. […]

total tau transcripts = assay: Total tau mRNA by RT-qPCR; conditions: 20 nM annonacin alone, 48 h, vs control
Experimental: (§1) LUHMES cells were seeded on PLO/FN coated 6-well microplates and the pharmacological treatments were performed as previously explained. The cells were washed in HBSS, prior to being collected for mRNA isolation (RNeasy® Plus Mini Kit, Qiagen, Venlo, Netherlands), following the manufacturer’s instructions. The mRNA concentrations were determined on a Nano-Drop 2000c (Thermo Fisher Scientific) and 1 µg of mRNA was reverse-transcribed into cDNA with the iScript™ Reverse Transcription Supermix for RT-qPCR Kit (Bio-Rad) on a thermal cycler (SensoQuest, Göttingen, Germany). Real-time PCR was performed using SYBR™ Select Master Mix for CFX (Thermo Fisher Scientific) with 30 ng cDNA and 0.4 µM of primers against the respective target genes (Supplementary Table S3), in a 20 µl total volume, on a CFX96 Touch™ Real-Time Cycler (Bio-Rad). The relative expression of mRNA was calculated using the CFX Manager software (ΔΔCt method) from Bio-Rad, and the Ct values of the target-genes were normalized to the reference genes RPL22 and UBQLN1. The data were reported as fold change relative to the control (DMSO-treated) condition.

3R-tau transcripts = assay: 3R-tau mRNA by RT-qPCR; conditions: 20 nM annonacin alone, 48 h, vs control
Experimental: as §1

HO-1 = HO-1 protein levels by ELISA; conditions: 48 h
Experimental: Protein expression levels of HO-1 were determined by ELISA (enzyme-linked immunosorbent assay) using a commercial kit (#ab207621, Abcam) according to the manufacturer's instructions. For this purpose, cells were seeded onto PLO/FN coated 6-well microplates. After the pharmacological treatments, cells were washed with warm HBSS, trypsinized and pelleted as before, and finally lysed in 100 µl cell extraction buffer PTR provided by the kit. Sample concentration was measured by BCA, as previously mentioned, and 1 µg of total protein extract was loaded into the respective wells. All samples were run in duplicates and the absorbances were measured on a FLUOstar® Omega plate reader at λ 450 nm. For data analysis, we used the MARS software (BMG LabTech). First, we calculated the means of the absorbances for each condition. The mean value of the blank control (i.e., a condition with only sample diluent buffer) was subtracted from the mean values of all standard and experimental conditions. A 4PL-curve fit was plotted on Prism 9 software (GraphPad Software, San Diego, CA, USA), using the blank-corrected mean values of standard conditions. The obtained curve was used to determine the HO-1 protein concentration, followed by multiplication by the dilution factor to obtain the concentration of the target-protein in each sample.

NQO1 = NQO1 mRNA after siRNA transfection (RT-qPCR); conditions: Nrf2 siRNA transfected cells, annonacin model
Experimental: as §1, with “Real-time PCR was performed using SYBR™ Select Master Mix for CFX (Thermo Fisher Scientific) with 30 ng cDNA and 0.4 µM of primers against the respective target genes (Supplementary Table S3), in a 20 µl total volume, on a CFX96 Touch™ Real-Time Cycler (Bio-Rad).” left out, “The data were reported as fold change relative to the control (DMSO-treated) condition.” left out
LUHMES cells seeded on PLO/FN coated 48-well microplates were left to differentiate for 5 days, before being transfected with 25 nM of NRF2-targeting (gene ID 4780) or negative control siRNA (siTOOLs Biotech, Planegg, Germany), in Opti-MEM + GlutaMax medium (Thermo Fisher Scientific) with 0.4% of lipofectamine RNAiMax. […] Cell viability was determined by calcein assay, after 48 h of treatment, as explained before.

CCCCCCCCCCCC[C@@H](O)[C@H]1CC[C@H]([C@H](O)CCCC[C@H](O)CCCCC[C@@H](O)CC2=CC(C)OC2=O)O1 (stereo partly drawn) [annonacin]
number of pSC-35 speckles per nucleus (SRSF2/SC-35; 20 nM annonacin alone): no changes in the number of pSC-35 speckles per nucleus | pSC-35 fluorescence intensity (SRSF2/SC-35; 20 nM annonacin alone): no changes | total tau transcripts (total tau transcripts): significantly downregulated | 3R-tau transcripts (3R-tau transcripts): downregulation of 3R-tau transcripts

O=C1[C@H](CC[C@H](O)c2ccc(F)cc2)[C@@H](c2ccc(O)cc2)N1c1ccc(F)cc1 [ezetimibe]
number of pSC-35 speckles per nucleus (SRSF2/SC-35; 15 μM ezetimibe + 20 nM annonacin): non-significant reduction of the number of speckles per nucleus | pSC-35 fluorescence intensity per nucleus (SRSF2/SC-35; 15 μM ezetimibe + 20 nM annonacin, vs control): twofold

Cn1c(Nc2nc3ccc(C(F)(F)F)cc3s2)nc2cc(C(=O)NCCOCCO)ccc21 [HPP-D]
HO-1 protein expression (HO-1; absence of annonacin): significantly increased the HO-1 protein expression | HO-1 protein expression (HO-1; presence of 20 nM annonacin): significantly increased the HO-1 protein expression

C=CC(C)(C)c1cc(/C=C/C(=O)c2ccc(O)cc2)c(OC)cc1O [licochalcone A]
NQO1 expression despite Nrf2 knockdown (NQO1): still led to an induction of NQO1 expression

Source: publication PMC11362529, “Exploring the neuroprotective potential of Nrf2-pathway activators against annonacin toxicity” (Scientific Reports, 2024)
